According to patent US11464770B2, “Anticancer pharmaceutical composition” (NATIONAL CANCER CENTER, priority 2016, dated 2022):
Like-named read-outs stand apart in the source and are kept apart here.

Legend:
[1] = test system: neuroblastoma cell lines; assay: Cell based assay, cell viability (CellTiter-Glo), neuroblastoma cell lines; details: Homo sapiens; SH-SY5Y cell line
Description: (§1) Commercially available bladder cancer, prostate cancer, lung cancer, breast cancer, blood cancer, pancreatic cancer, colorectal cancer, brain cancer, neuroblastoma, melanoma, liver cancer, cervical carcinoma, ovarian cancer, renal cancer, and papilloma cell lines were each treated with trypsin-EDTA and cultured, followed by being seeded in each well of a 96 well plate. After 24 hours of treatment at constant temperature, the respective cells were treated with the candidate compound so that a final concentration became 0 to 2 μM. The treated cells were additionally cultured for 72 hours, and cell viability was measured by using an ATP detection method (CellTiter-Glo® Luminescent Cell Viability Assay, Promega).

[2] = test system: colorectal cancer cell lines (e.g. DLD-1, HCT 116, SW620, HCT-15, HCT-8, RKO); assay: Cell based assay, cell viability (CellTiter-Glo), colorectal cancer cell lines
Description: as §1

[3] = test system: liver cancer cell lines; assay: Cell based assay, cell viability (CellTiter-Glo), liver cancer cell lines; details: Homo sapiens, SK-HEP1; SK-HEP-1 cell line
Description: as §1

[4] = Homo sapiens, DLD-1, 72 hours treatment, read-out: IC50, colorectal cancer cell line DLD-1
[5] = Homo sapiens, HCT 116, 72 hours treatment, read-out: IC50, colorectal cancer cell line HCT 116
[6] = Homo sapiens, HCT-8, 72 hours treatment, read-out: IC50, colorectal cancer cell line HCT-8
[7] = Homo sapiens, HCT-15, 72 hours treatment, read-out: IC50, colorectal cancer cell line HCT-15
[8] = Homo sapiens, HT-29, 72 hours treatment, read-out: IC50, colorectal cancer cell line HT-29
[9] = Homo sapiens, LoVo, 72 hours treatment, read-out: IC50, colorectal cancer cell line LoVo
[10] = Homo sapiens, SW480, 72 hours treatment, read-out: IC50, colorectal cancer cell line SW480
[11] = Homo sapiens, SW-620, SW620, 72 hours treatment, read-out: IC50, colorectal cancer cell line SW620
[12] = RKO, 72 hours treatment, read-out: IC50, colorectal cancer cell line RKO

| IC50 [1] [nM] | IC50 [2, 4] [nM] | IC50 [2, 5] [nM] | IC50 [2, 6] [nM] | IC50 [2, 7] [nM] | IC50 [2, 8] [nM] | IC50 [2, 9] [nM] | IC50 [2, 10] [nM] | IC50 [2, 11] [nM] | IC50 [2, 12] [nM] | IC50 [3] [nM] | Structure (SMILES) |
| --- | --- | --- | --- | --- | --- | --- | --- | --- | --- | --- | --- |
| > 2000 | > 2000 | > 2000 | > 2000 | > 2000 | > 10000 | > 2000 | > 2000 | > 2000 | > 2000 | > 2000 | CC(=O)c1c([S+]([O-])Cc2ccccc2)n(C(=O)c2ccc(Br)cc2)c2c(Br)ccc(Cl)c2c1=O (centres unmarked) [Compound 20, 3-acetyl-2-(benzylsulfinyl)-8-bromo-1-(4-bromobenzoyl)-5-chloroquinolin-4(1H)-one] |
| > 2000 | > 2000 | > 2000 | > 2000 | > 2000 | > 10000 | > 2000 | > 2000 | > 2000 | > 2000 | > 2000 | CC(=O)c1c(S(C)(=O)=O)n(C(=O)c2ccc(Br)cc2)c2c(Br)ccc(Cl)c2c1=O [Compound 21, 3-acetyl-8-bromo-1-(4-bromobenzoyl)-5-chloro-2-(methylsulfonyl)quinolin-4(1H)-one] |
| > 2000 | > 2000 | > 2000 | > 2000 | > 2000 | > 10000 | > 2000 | > 2000 | > 2000 | > 2000 | > 2000 | CC(=O)c1c([S+](C)[O-])n(Cc2ccc(F)c(Cl)c2)c2c(Br)ccc(Cl)c2c1=O (centres unmarked) [Compound 22, 3-acetyl-8-bromo-5-chloro-1-(3-chloro-4-fluorobenzyl)-2-(methylsulfinyl)quinolin-4(1H)-one] |
| > 2000 | > 2000 | > 2000 | > 2000 | > 2000 | > 10000 | > 2000 | > 2000 | > 2000 | > 2000 | > 2000 | CC(=O)c1c(SCc2ccccc2)n(C(=O)c2ccc(Br)cc2)c2c(Br)ccc(Cl)c2c1=O [Compound 23, 3-acetyl-2-(benzylthio)-8-bromo-1-(4-bromobenzoyl)-5-chloroquinolin-4(1H)-one] |
| > 2000 | > 2000 | > 2000 | > 2000 | > 2000 | > 10000 | > 2000 | > 2000 | > 2000 | > 2000 | > 2000 | CC(=O)c1c(SC(C)C)[nH]c2c(Br)ccc(Cl)c2c1=O [Compound 24, 3-acetyl-8-bromo-5-chloro-2-(isopropylthio)quinolin-4(1H)-one] |
| > 2000 | > 2000 | > 2000 | > 2000 | > 2000 | > 10000 | > 2000 | > 2000 | > 2000 | > 2000 | > 2000 | CC(=O)c1c([S+]([O-])C(C)C)[nH]c2c(Br)ccc(Cl)c2c1=O (centres unmarked) [Compound 25, 3-acetyl-8-bromo-5-chloro-2-(isopropylsulfinyl)quinolin-4(1H)-one] |
| > 2000 | > 2000 | > 2000 | > 2000 | > 2000 | > 10000 | > 2000 | > 2000 | > 2000 | 1790 | > 2000 | CC(=O)c1c([S+]([O-])C(C)c2ccccc2)[nH]c2c(Br)ccc(Cl)c2c1=O (centres unmarked) [Compound 26, 3-acetyl-8-bromo-5-chloro-2-((1-phenylethyl)sulfinyl)quinolin-4(1H)-one] |
| > 2000 | > 2000 | > 2000 | > 2000 | > 2000 | > 10000 | > 2000 | > 2000 | > 2000 | > 2000 | > 2000 | CC(=O)c1c(SCc2cccc(C#N)c2)[nH]c2c(Br)ccc(Cl)c2c1=O [Compound 27, 3-(((3-acetyl-8-bromo-5-chloro-4-oxo-1,4-dihydroquinolin-2-yl)thio)methyl)benzonitrile] |
| > 2000 | 940 | 960 | 1300 | 1060 | > 10000 | 1900 | 1220 | 1090 | 1090 | 760 | CC(=O)c1c([S+]([O-])Cc2cccc(C#N)c2)[nH]c2c(Br)ccc(Cl)c2c1=O (centres unmarked) [Compound 28, 3-(((3-acetyl-8-bromo-5-chloro-4-oxo-1,4-dihydroquinolin-2-yl)sulfinyl)methyl)benzonitrile] |
| > 2000 | > 2000 | > 2000 | > 2000 | > 2000 | > 10000 | > 2000 | > 2000 | > 2000 | > 2000 | > 2000 | CC(=O)c1c(SCc2ccc(F)c(Cl)c2)[nH]c2c(Br)ccc(Cl)c2c1=O [Compound 30, 3-acetyl-8-bromo-5-chloro-2-((3-chloro-4-fluorobenzyl)thio)quinolin-4(1H)-one] |
| > 2000 | > 2000 | > 2000 | > 2000 | > 2000 | > 10000 | > 2000 | > 2000 | > 2000 | > 2000 | > 2000 | CC(=O)c1c(SCc2ccc([N+](=O)[O-])cc2)[nH]c2c(Br)ccc(Cl)c2c1=O [Compound 32, 3-acetyl-8-bromo-5-chloro-2-((4-nitrobenzyl)thio)quinolin-4(1H)-one] |
| > 2000 | > 2000 | > 2000 | > 2000 | > 2000 | > 10000 | > 2000 | > 2000 | > 2000 | > 2000 | > 2000 | CSc1c(C(C)=O)c(=O)c2c(Cl)ccc(Br)c2n1S(C)(=O)=O [Compound 35, 3-acetyl-8-bromo-5-chloro-1-(methylsulfonyl)-2-(methylthio)quinolin-4(1H)-one] |
| > 2000 | > 2000 | > 2000 | > 2000 | > 2000 | > 10000 | > 2000 | > 2000 | > 2000 | > 2000 | > 2000 | CC(=O)c1c([S+](C)[O-])n(S(=O)(=O)C(F)(F)F)c2c(Br)ccc(Cl)c2c1=O (centres unmarked) [Compound 36, 3-acetyl-8-bromo-5-chloro-2-(methylsulfinyl)-1-((trifluoromethyl)sulfonyl)quinolin-4(1H)-one] |
| > 2000 | > 2000 | > 2000 | > 2000 | > 2000 | > 10000 | > 2000 | > 2000 | > 2000 | > 2000 | > 2000 | CSc1c(C(C)=O)c(=O)c2c(Cl)ccc(Br)c2n1S(=O)(=O)c1ccc(Cl)cc1 [Compound 37, 3-acetyl-8-bromo-5-chloro-1-((4-chlorophenyl)sulfonyl)-2-(methylthio)quinolin-4(1H)-one] |
| > 2000 | > 2000 | > 2000 | > 2000 | > 2000 | > 10000 | > 2000 | > 2000 | > 2000 | > 2000 | > 2000 | CSc1c(C(C)=O)c(=O)c2c(Cl)ccc(Br)c2n1S(=O)(=O)c1ccc([N+](=O)[O-])cc1 [Compound 38, 3-acetyl-8-bromo-5-chloro-2-(methylthio)-1-((4-nitrophenyl)sulfonyl)quinolin-4(1H)-one] |
| > 2000 | > 2000 | > 2000 | > 2000 | > 2000 | > 10000 | > 2000 | > 2000 | > 2000 | > 2000 | > 2000 | CCS(=O)(=O)n1c([S+](C)[O-])c(C(C)=O)c(=O)c2c(Cl)ccc(Br)c21 (centres unmarked) [Compound 39, 3-acetyl-8-bromo-5-chloro-1-(ethylsulfonyl)-2-(methylsulfinyl)quinolin-4(1H)-one] |
| > 2000 | > 2000 | > 2000 | > 2000 | > 2000 | > 10000 | > 2000 | > 2000 | > 2000 | > 2000 | > 2000 | CSc1c(C(C)=O)c(=O)c2c(Cl)ccc(Br)c2n1S(=O)(=O)c1ccc(C(C)(C)C)cc1 [Compound 40, 3-acetyl-8-bromo-1-((4-(tert-butyl)phenyl)sulfonyl)-5-chloro-2-(methylthio)quinolin-4(1H)-one] |
| > 2000 | > 2000 | > 2000 | > 2000 | > 2000 | > 10000 | > 2000 | > 2000 | > 2000 | > 2000 | > 2000 | CC(=O)c1c(S(C)(=O)=O)n(S(=O)(=O)c2ccc(C(C)(C)C)cc2)c2c(Br)ccc(Cl)c2c1=O [Compound 41, 3-acetyl-8-bromo-1-((4-(tert-butyl)phenyl)sulfonyl)-5-chloro-2-(methylsulfonyl)quinolin-4(1H)-one] |
| > 2000 | 1960 | > 2000 | > 2000 | > 2000 | > 10000 | > 2000 | > 2000 | > 2000 | > 2000 | > 2000 | CC(=O)c1c([S+](C)[O-])n(S(=O)(=O)c2ccc(C(C)(C)C)cc2)c2c(Br)ccc(Cl)c2c1=O (centres unmarked) [Compound 42, 3-acetyl-8-bromo-1-((4-(tert-butyl)phenyl)sulfonyl)-5-chloro-2-(methylsulfinyl)quinolin-4(1H)-one] |
| > 2000 | > 2000 | > 2000 | > 2000 | > 2000 | > 10000 | > 2000 | > 2000 | > 2000 | > 2000 | > 2000 | CC(=O)c1c(SCc2cc(Cl)ccc2Cl)[nH]c2c(Br)ccc(Cl)c2c1=O [Compound 43, 3-acetyl-8-bromo-5-chloro-2-((2,5-dichlorobenzyl)thio)quinolin-4(1H)-one] |
| > 2000 | > 2000 | > 2000 | > 2000 | > 2000 | > 10000 | > 2000 | > 2000 | > 2000 | > 2000 | > 2000 | CC(=O)c1c(SCc2cc(F)cc(F)c2)[nH]c2c(Br)ccc(Cl)c2c1=O [Compound 45, 3-acetyl-8-bromo-5-chloro-2-((3,5-difluorobenzyl)thio)quinolin-4(1H)-one] |
| > 2000 | > 2000 | > 2000 | > 2000 | > 2000 | > 10000 | > 2000 | > 2000 | > 2000 | > 2000 | > 2000 | CC(=O)c1c(SCc2cccc(I)c2)[nH]c2c(Br)ccc(Cl)c2c1=O [Compound 47, 3-acetyl-8-bromo-5-chloro-2-((3-iodobenzyl)thio)quinolin-4(1H)-one] |
